{
  "source": "EPA's ToxValDB 9.5",
  "key": {"Canidae [1]": {"system": "Canidae", "conditions": "oral, Beagle"}, "Rattus norvegicus [2]": {"system": "Rattus norvegicus", "conditions": "for NOEL / LOEL: Hershberger, gavage; for LEL: uterotrophic, Active"}, "Canidae [3]": {"system": "Canidae", "conditions": "oral, Dog Other"}, "Canidae [4]": {"system": "Canidae", "conditions": "oral, M/F, Dog Other"}, "Mus musculus [5]": {"system": "Mus musculus", "conditions": "chronic; duration: 103 weeks; oral; gavage; M/F; B6C3F1; hepatic"}, "Rattus norvegicus [6]": {"system": "Rattus norvegicus", "conditions": "oral"}, "Rattus norvegicus [7]": {"system": "Rattus norvegicus", "conditions": "chronic; duration: 2 years; oral; gavage; M/F; kidney pathology"}, "Mus musculus [8]": {"system": "Mus musculus", "conditions": "uterotrophic; duration: 3 days; injection; subcutaneous; Active"}, "Rattus norvegicus [9]": {"system": "Rattus norvegicus", "conditions": "repeat dose other; oral"}, "Rattus norvegicus [10]": {"system": "Rattus norvegicus", "conditions": "chronic; duration: 2 years; oral; diet; Bladder: Hyperplasia"}, "Rattus norvegicus [11]": {"system": "Rattus norvegicus", "assay": "LD0; higher = less toxic", "conditions": "acute; oral"}, "[12]": {"conditions": "duration: 9 months, capsule, M/F, Decreased bodyweights, mortality, prostatic malfunction, foci of softening in the brainstem, & testicular atrophy"}, "[13]": {"conditions": "chronic, Decreased body weight gain, altered serum chemistry parameters (decreased serum cholesterol, total protein, and serum albumin and globulin …"}, "[14]": {"conditions": "duration: 7 days, oral, Sprague-Dawley, active + Antiandrogenic + anti-androgenic + reduced SV and caudal epididymal wt / PPS delayed"}, "[15]": {"conditions": "duration: 10 days, oral, Wistar, active + Antiandrogenic + anti-androgenic + reduced SV and caudal epididymal wt / PPS delayed"}, "[16]": {"conditions": "chronic, duration: 2 years, diet, increased serum alkaline phosphatase and liver weight, and hepatic lesions"}, "[17]": {"conditions": "chronic, duration: 2 years, diet, increased hemosiderin deposition, serum alkaline phosphatase, and liver weight (females)"}, "[18]": {"conditions": "duration: 10 days, oral, Sprague-Dawley, active + Negative + Antiandrogenic + anti-androgenic + DP and LABC decreased in high dose"}, "[19]": {"conditions": "chronic, duration: 12 months, diet, increase in methemoglobin + Increased liver weights"}},
  "note": "“And” between values parts separate entries of the source, which are not always exact repeats. Equal entries are not always repeated.",
  "data": [
    {"smiles": "N=C(N)c1ccc(N=NNc2ccc(C(=N)N)cc2)cc1", "note": "[Diminazene]", "values": [
      {"measurement": "LOEL", "setting": "Canidae [1]; [12]", "value": 60, "unit": "mg/kg-day"},
      {"measurement": "NOEL", "setting": "Canidae [1]; [12]", "value": 20, "unit": "mg/kg-day"}
    ]},
    {"smiles": "COC(=O)Nc1nc2ccc(C(=O)c3ccc(F)cc3)cc2[nH]1", "note": "[Flubendazole]", "values": [
      {"measurement": "NOEL", "setting": "Canidae [1]; duration: 3 months, capsule, M/F, Atrophic change in prostate", "value": 2.5, "unit": "mg/kg-day"},
      {"measurement": "NOEL", "setting": "Canidae [1]; subchronic, duration: 3 months, capsule, M/F, Atrophic change in prostate", "value": 2.5, "unit": "mg/kg-day"}
    ]},
    {"smiles": "O=C1c2ccccc2C(=O)N1SC(Cl)(Cl)Cl", "note": "[Folpet]", "values": [
      {"measurement": "NOEL", "setting": "Rattus norvegicus [2]; duration: 10 days, oral, Sprague-Dawley, inactive + Negative + Negative + neither + decrease in LABC and epididymis at 400 and 800 / decrease in liver and body wt (8% at 200 / 14…", "value": 200, "unit": "mg/kg-day"},
      {"measurement": "NOEL", "setting": "Canidae [3]; chronic, duration: 1 years, capsule, Blood: Altered chemistry + Whole body: Altered weight gain", "value": 10, "unit": "mg/kg-day"},
      {"measurement": "LEL", "setting": "Canidae [4]; [13]", "value": 60, "unit": "mg/kg-day"},
      {"measurement": "NOEL", "setting": "Canidae [4]; [13]", "value": 10, "unit": "mg/kg-day"}
    ]},
    {"smiles": "CCC(=O)O.CCC(=O)O.O=C(Nc1cccc(C2=NCCN2)c1)Nc1cccc(C2=NCCN2)c1", "note": "[Imidocarb dipropionate]", "values": [
      {"measurement": "NOEL", "setting": "Canidae [1]; subchronic, duration: 90 days, capsule, M/F, Transient reducting in food intake & histopathology in the liver", "value": 5, "unit": "mg/kg-day"}
    ]},
    {"smiles": "CC1=CC(=O)CC(C)(C)C1", "note": "[Isophorone]", "values": [
      {"measurement": "NOEL", "setting": "Rattus norvegicus [2]; duration: 10 days, oral, Sprague-Dawley, inactive + Negative + Negative + neither + increase age at PPS, decrease wt of SV, decrease testosterone at 800 / NS increase in liver wt …", "value": 200, "unit": "mg/kg-day"},
      {"measurement": "LOAEL", "setting": "Mus musculus [5]", "value": 179, "unit": "mg/kg-day"},
      {"measurement": "NOAEL", "setting": "Rattus norvegicus [6]; subchronic, duration: 90 days, diet, F, other", "value": 312, "unit": "mg/kg-day"},
      {"measurement": "NOEL", "setting": "Canidae [3]; subchronic, duration: 90 days, capsule, Kidney: Lesions", "value": 150, "unit": "mg/kg-day"},
      {"measurement": "LEL", "setting": "Rattus norvegicus [7]", "value": 250, "unit": "mg/kg-day"},
      {"measurement": "NOEL", "setting": "Canidae [4]; subchronic, duration: 90 days, diet, no effects", "value": 150, "unit": "mg/kg-day"}
    ]},
    {"smiles": "O=C1C2(Cl)C3(Cl)C4(Cl)C(Cl)(Cl)C5(Cl)C3(Cl)C1(Cl)C5(Cl)C24Cl", "note": "(centres undefined) [Kepone]", "values": [
      {"measurement": "LEL", "setting": "Mus musculus [8]", "value": 1, "unit": "mg/kg-day"},
      {"measurement": "LEL", "setting": "Rattus norvegicus [2]; duration: 1 days, injection, subcutaneous", "value": 10, "unit": "mg/kg-day"},
      {"measurement": "LEL", "setting": "Rattus norvegicus [2]; duration: 2 days, injection, subcutaneous", "value": 0.2, "unit": "mg/day"},
      {"measurement": "LEL", "setting": "Rattus norvegicus [2]; duration: 3 days, injection, subcutaneous", "value": "15 mg/kg-day and 20 mg/kg-day and 30 mg/kg-day"},
      {"measurement": "NOAEL", "setting": "Rattus norvegicus [6]; chronic, duration: 2 years, diet, M/F, Wistar, renal", "value": 0.089, "unit": "mg/kg-day"},
      {"measurement": "NOAEL", "setting": "Rattus norvegicus [6]; short-term, duration: 10 days, gavage, M, Fischer 344, neurological", "value": 1.25, "unit": "mg/kg-day"},
      {"measurement": "NOAEL", "setting": "Rattus norvegicus [6]; subchronic, duration: 90 days, diet, M, Sprague-Dawley, neurological, reproductive", "value": 0.26, "unit": "mg/kg-day"},
      {"measurement": "LOAEL", "setting": "Rattus norvegicus [9]", "value": 0.4, "unit": "mg/kg-day"},
      {"measurement": "NOAEL", "setting": "Rattus norvegicus [9]", "value": 0.08, "unit": "mg/kg-day"}
    ]},
    {"smiles": "Cl.c1ccc([C@H]2CN3CCSC3=N2)cc1", "note": "[Levamisole hydrochloride]", "values": [
      {"measurement": "LOEL", "setting": "Canidae [1]; chronic, duration: 14 months, capsule, Re-emergence of haemolytic anaemia", "value": 1.25, "unit": "mg/kg-day"},
      {"measurement": "LOEL", "setting": "Canidae [1]; immunotoxicology, duration: 14 months, capsule, Re-emergence of haemolytic anaemia", "value": 1.25, "unit": "mg/kg-day"}
    ]},
    {"smiles": "CON(C)C(=O)Nc1ccc(Cl)c(Cl)c1", "note": "[Linuron]", "values": [
      {"measurement": "LOEL", "setting": "Rattus norvegicus [2]; [14]", "value": "40 mg/kg-day and 100 mg/kg-day"},
      {"measurement": "NOEL", "setting": "Rattus norvegicus [2]; [14]", "value": 20, "unit": "mg/kg-day"},
      {"measurement": "NOEL", "setting": "Rattus norvegicus [2]; duration: 10 days, oral, Sprague-Dawley, inactive + Negative + anti-androgenic + reduced SV and caudal epididymal wt / PPS delayed", "value": 20, "unit": "mg/kg-day"},
      {"measurement": "LOEL", "setting": "Rattus norvegicus [2]; [15]", "value": "40 mg/kg-day and 100 mg/kg-day"},
      {"measurement": "NOEL", "setting": "Rattus norvegicus [2]; [15]", "value": "20 mg/kg-day and 10 mg/kg-day"},
      {"measurement": "NOEL", "setting": "Rattus norvegicus [2]; duration: 10 days, oral, Wistar, inactive + Negative + anti-androgenic + reduced SV and caudal epididymal wt / PPS delayed", "value": 20, "unit": "mg/kg-day"},
      {"measurement": "NOEL", "setting": "Rattus norvegicus [2]; duration: 10 days, oral, wistar, active + Antiandrogenic + anti-androgenic + reduced SV and caudal epididymal wt / PPS delayed", "value": "20 mg/kg-day and 30 mg/kg-day and 10 mg/kg-day"},
      {"measurement": "LOAEL", "setting": "Canidae [3]; chronic, duration: 2 years, diet, Blood: Hematological effects", "value": 0.625, "unit": "mg/kg-day"},
      {"measurement": "LEL", "setting": "Canidae [4]; chronic, duration: 2 years, diet, abnormal blood pigment", "value": 0.625, "unit": "mg/kg-day"}
    ]},
    {"smiles": "CO/N=C1\\C[C@]2(C[C@@H]3C[C@@H](C/C=C(\\C)C[C@@H](C)/C=C/C=C4\\CO[C@@H]5[C@H](O)C(C)=C[C@@H](C(=O)O3)[C@]45O)O2)O[C@H](/C(C)=C/C(C)C)[C@H]1C", "note": "[Moxidectin]", "values": [
      {"measurement": "NOEL", "setting": "Canidae [1]; subchronic, duration: 90 days, diet, M/F, Decreased bodyweight & feed consumption", "value": 0.3, "unit": "mg/kg-day"}
    ]},
    {"smiles": "CC[C@@H](C(=O)O)[C@@H]1O[C@@H]([C@@H](C)[C@H](O)[C@H](C)C(=O)[C@H](CC)[C@H]2O[C@]3(C=C[C@@H](O)[C@]4(CC[C@@](C)([C@H]5CC[C@](O)(CC)[C@H](C)O5)O4)O3)[C@H](C)C[C@@H]2C)[C@@H](C)C[C@@H]1C", "note": "[Narasin]", "values": [
      {"measurement": "NOAEL", "setting": "Canidae [1]; chronic, duration: 1 years, capsule, M/F, Minimal to slight peripheral nerve changes & focal skeletal muscle degeneration", "value": 0.5, "unit": "mg/kg-day"}
    ]},
    {"smiles": "CCC(CC)Nc1c([N+](=O)[O-])cc(C)c(C)c1[N+](=O)[O-]", "note": "[Pendimethalin]", "values": [
      {"measurement": "LEL", "setting": "Rattus norvegicus [2]; duration: 3 days, oral", "value": 300, "unit": "mg/kg-day"},
      {"measurement": "NOEL", "setting": "Canidae [3]; chronic, duration: 2 years, capsule, Liver: Effects", "value": 12.5, "unit": "mg/kg-day"},
      {"measurement": "LEL", "setting": "Canidae [4]; [16]", "value": 50, "unit": "mg/kg-day"},
      {"measurement": "NOEL", "setting": "Canidae [4]; [16]", "value": 12.5, "unit": "mg/kg-day"}
    ]},
    {"smiles": "C#CC(C)(C)NC(=O)c1cc(Cl)cc(Cl)c1", "note": "[Propyzamide]", "values": [
      {"measurement": "NOEL", "setting": "Rattus norvegicus [2]; duration: 10 days, oral, Sprague-Dawley, active + Negative + Antiandrogenic + anti-androgenic + two studies / first one doses were high but effects observed on AST wt and delayed …", "value": 40, "unit": "mg/kg-day"},
      {"measurement": "NOEL", "setting": "Canidae [3]; chronic, duration: 2 years, diet, None Observed", "value": 7.5, "unit": "mg/kg-day"},
      {"measurement": "NOEL", "setting": "Canidae [4]; chronic, duration: 2 years, diet, no effects", "value": 7.5, "unit": "mg/kg-day"}
    ]},
    {"smiles": "O=C(O)c1ccc(C(=O)O)cc1", "note": "[Terephthalic acid]", "values": [
      {"measurement": "NOEL", "setting": "Rattus norvegicus [10]", "value": 142, "unit": "mg/kg-day"},
      {"measurement": "LD0", "setting": "Rattus norvegicus [11]", "value": 2000, "unit": "mg/kg"}
    ]},
    {"smiles": "CC(C)N(C(=O)SCC(Cl)=C(Cl)Cl)C(C)C", "note": "[Tri-allate]", "values": [
      {"measurement": "NOAEL", "setting": "Canidae [3]; chronic, duration: 24 months, diet, Liver: Effects + Spleen: Effects", "value": 1.27, "unit": "mg/kg-day"},
      {"measurement": "LOAEL", "setting": "Canidae [4]; [17]", "value": 4.25, "unit": "mg/kg-day"},
      {"measurement": "NOAEL", "setting": "Canidae [4]; [17]", "value": 1.27, "unit": "mg/kg-day"}
    ]},
    {"smiles": "CCCN(CCC)c1c([N+](=O)[O-])cc(C(F)(F)F)cc1[N+](=O)[O-]", "note": "[Trifluralin]", "values": [
      {"measurement": "LOEL", "setting": "Rattus norvegicus [2]; [18]", "value": "250 mg/kg-day and 450 mg/kg-day"},
      {"measurement": "NOEL", "setting": "Rattus norvegicus [2]; [18]", "value": "75 mg/kg-day and 150 mg/kg-day"},
      {"measurement": "NOEL", "setting": "Canidae [3]; chronic, duration: 12 months, diet, Blood: Methemoglobinemia + Liver: Increased weight", "value": 0.75, "unit": "mg/kg-day"},
      {"measurement": "LEL", "setting": "Canidae [4]; [19]", "value": 3.75, "unit": "mg/kg-day"},
      {"measurement": "NOEL", "setting": "Canidae [4]; [19]", "value": 0.75, "unit": "mg/kg-day"}
    ]}
  ]
}
